Drawing on US20250282746A1, “HALOGEN-SUBSTITUTED ISOINDOLINE COMPOUND AND USE THEREOF” (CHENGDU FENDI PHARMACEUTICAL CO., LTD., priority 2022, published 2025), this text covers inhibition and IC50 for 22 compounds.

One experiment deals with T1, GSPT1 protein (Homo sapiens, UniProt P15170).
T1 construct: The whole cell lysate was prepared using a RIPA lysis buffer; endogenous in cells; host or cells: NB-4 cells
As to the kind of experiment: Degradation of GSPT1 protein in NB-4 cells (Western blot). It is filed as cell-based. Conditions: read-out: GSPT1 degradation. In a few lines:
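NB-4 cells treated with compounds at 1 μM for 6 h at 37 °C, 5% CO2, with DMSO control. RIPA whole-cell lysates, BCA-normalized, were run on 4-20% SDS-PAGE and immunoblotted for GSPT1 protein.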

The next experiment relates to MV-4-11 cells. As to the kind of experiment: Antiproliferative activity against MV-4-11 cells (CellTiter-Glo, 72 h). It is filed as cell-based. Conditions: Homo sapiens, read-out: Antiproliferative activity IC50. The method in brief: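 MV-4-11 cells in RPMI + 10% FBS plated at 5,000 cells/well and pre-incubated 24 h at 37 °C, 5% CO2. Compounds were then added (final DMSO 0.2%) and cells incubated 72 h. Viability was read by CellTiter-Glo luminescence after 30 min equilibration at room temperature.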
For orientation: Cellular ATP, detected with luciferase, serves as a proxy for viable cell number.

Read-outs that look alike come from different tables or passages of the source.

T1 sequence (P15170 whole entry): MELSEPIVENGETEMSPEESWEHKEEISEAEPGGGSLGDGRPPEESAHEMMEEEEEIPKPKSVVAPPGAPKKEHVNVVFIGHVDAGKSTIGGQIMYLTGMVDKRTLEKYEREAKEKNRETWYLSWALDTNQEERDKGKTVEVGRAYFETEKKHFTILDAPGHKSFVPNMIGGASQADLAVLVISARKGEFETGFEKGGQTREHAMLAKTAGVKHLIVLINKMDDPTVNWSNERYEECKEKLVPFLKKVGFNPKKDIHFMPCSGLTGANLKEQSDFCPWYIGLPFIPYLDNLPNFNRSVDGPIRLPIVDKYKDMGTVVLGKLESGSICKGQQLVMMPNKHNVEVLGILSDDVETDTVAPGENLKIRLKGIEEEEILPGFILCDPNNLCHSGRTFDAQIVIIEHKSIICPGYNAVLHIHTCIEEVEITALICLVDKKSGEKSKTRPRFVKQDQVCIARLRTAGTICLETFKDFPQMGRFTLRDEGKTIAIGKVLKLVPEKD

A word on the IC50: it is the point on the concentration scale where inhibition reaches its midpoint. For `O=C1CCC(N2Cc3c(ccc(CNC(=O)c4cc5cc(F)ccc5o4)c3Cl)C2=O)C(=O)N1` (centres unmarked) [FDAB-69], on GSPT1 protein (NB-4 cells, compound 1 μM, 6 h), the inhibition at 1 µM lay in the range of 50 to 80%. Also, in the experiment on MV-4-11 cells (MV4-11, MV-4-11 cells, 72 h), the half-inhibitory concentration (IC50) is 1 to 10 nM.
As to `COc1cc(C)ccc1C(=O)NCc1ccc2c(c1F)CN(C1CCC(=O)NC1=O)C2=O` (centres unmarked) [FDAB-104], the inhibition at 1 µM on GSPT1 protein (NB-4 cells, compound 1 μM, 6 h) is below 25%. Besides, the IC50 with MV-4-11 cells (MV4-11, MV-4-11 cells, 72 h) was above 1000 nM.
Turning to `O=C1CCC(N2Cc3cc(CNC(=O)c4cc5cc(Cl)ccc5o4)c(F)cc3C2=O)C(=O)N1` (centres unmarked) [FDAB-20], the inhibition at 1 µM at GSPT1 protein (NB-4 cells, compound 1 μM, 6 h) was above 80%. For the same compound, the concentration for half-maximal inhibition (IC50) with MV-4-11 cells (MV4-11, MV-4-11 cells, 72 h) lay within 1 to 10 nM.
On the same counts, the results for `COc1ccc(C(=O)NCc2ccc3c(c2F)CN(C2CCC(=O)NC2=O)C3=O)cc1` (centres unmarked) [FDAB-85] are above 80% and 10 to 100 nM.
The matching figures for `Cc1ccc(C(=O)NCc2ccc3c(c2Cl)CN(C2CCC(=O)NC2=O)C3=O)cc1` (centres unmarked) [FDAB-76]: below 25% and above 1000 nM.
On to `Cc1ccc(C(=O)NCc2ccc3c(c2F)CN(C2CCC(=O)N(COC(=O)OC(C)C)C2=O)C3=O)c(F)c1` (centres unmarked) [FDAB-130], for which the inhibition at 1 µM on GSPT1 protein (NB-4, 6 h) was 50 to 80%. In the experiment on MV-4-11 cells (MV4-11, 72 h), the IC50 fell in the range of 10 to 100 nM.
As to `O=C1CCC(N2Cc3cc(CNC(=O)c4ccc(C(F)(F)F)cc4)c(F)cc3C2=O)C(=O)N1` (centres unmarked) [FDAB-52], the inhibition at 1 µM on GSPT1 protein (NB-4 cells, compound 1 μM, 6 h) was above 80%. Besides, the concentration for half-maximal inhibition (IC50) in the experiment with MV-4-11 cells (MV4-11, MV-4-11 cells, 72 h) fell in the range of 1 to 10 nM.
Take `Cn1ccc2ccc(C(=O)NCc3cc4c(cc3F)C(=O)N(C3CCC(=O)NC3=O)C4)cc21` (centres unmarked) [FDAB-59]: the inhibition at 1 µM at GSPT1 protein (NB-4 cells, compound 1 μM, 6 h) was above 80%. In the experiment with MV-4-11 cells (MV4-11, MV-4-11 cells, 72 h), the IC50 is above 1000 nM.
The matching figures for `N#Cc1cc2c(cc1Cl)C(=O)N(C1CCC(=O)NC1=O)C2` (centres unmarked) [FDAB-13]: below 25% and above 1000 nM.
On the same counts, the results for `O=C1CCC(N2Cc3c(ccc(CNC(=O)c4cc5ccccc5o4)c3Cl)C2=O)C(=O)N1` (centres unmarked) [FDAB-67] are above 80% and 1 to 10 nM.
The matching figures for `O=C(Cc1c[nH]c2ccc(F)cc12)NCc1ccc2c(c1F)CN(C1CCC(=O)NC1=O)C2=O` (centres unmarked) [FDAB-134]: 50 to 80% and 1 to 10 nM.
Regarding `O=C(Cc1c[nH]c2cccc(Br)c12)NCc1ccc2c(c1F)CN(C1CCC(=O)NC1=O)C2=O` (centres unmarked) [FDAB-135], the inhibition at 1 µM on GSPT1 protein (NB-4 cells, compound 1 μM, 6 h) was above 80%. Besides, the 50% inhibitory concentration (IC50) in the experiment with MV-4-11 cells (MV4-11, MV-4-11 cells, 72 h) lay within 1 to 10 nM.
The matching figures for `Cc1ccc(C(=O)NCc2ccc3c(c2Cl)CN(C2CCC(=O)NC2=O)C3=O)c(F)c1` (centres unmarked) [FDAB-123]: 50 to 80% and 10 to 100 nM.
Turning to `O=C1CCC(N2Cc3cc(CNC(=O)c4cc5ccccc5o4)c(Cl)cc3C2=O)C(=O)N1` (centres unmarked) [FDAB-71], at GSPT1 protein (NB-4 cells, compound 1 μM, 6 h), the inhibition at 1 µM was below 25%. In addition, the 50% inhibitory concentration (IC50) in the experiment with MV-4-11 cells (MV4-11, MV-4-11 cells, 72 h) was above 1000 nM.
The matching figures for `N#Cc1cc(C(=O)NCc2ccc3c(c2F)CN(C2CCC(=O)NC2=O)C3=O)ccc1Cl` (centres unmarked) [FDAB-82]: below 25% and above 1000 nM.
On the same counts, the results for `O=C1CCC(N2Cc3c(ccc(CNC(=O)c4ccccc4)c3F)C2=O)C(=O)N1` (centres unmarked) [FDAB-81] are below 25% and above 1000 nM.
On the same counts, the results for `O=C1CCC(N2Cc3cc(CNC(=O)c4cc5ccccc5[nH]4)c(F)cc3C2=O)C(=O)N1` (centres unmarked) [FDAB-24] are above 80% and 1 to 10 nM.
For the compound `O=C1CCC(N2Cc3c(ccc(CNC(=O)c4ccc(F)cc4)c3Cl)C2=O)C(=O)N1` (centres unmarked) [FDAB-77], on GSPT1 protein (NB-4 cells, compound 1 μM, 6 h), the inhibition at 1 µM was below 25%. The concentration for half-maximal inhibition (IC50) with MV-4-11 cells (MV4-11, MV-4-11 cells, 72 h) was above 1000 nM.
The matching figures for `O=C(COc1c(Cl)cc(Cl)cc1Cl)NCc1ccc2c(c1F)CN(C1CCC(=O)NC1=O)C2=O` (centres unmarked) [FDAB-152]: above 80% and below 1 nM.
The matching figures for `CC(C)(C)OC(=O)NCc1ccc2c(c1Cl)CN(C1CCC(=O)NC1=O)C2=O` (centres unmarked) [FDAB-11]: below 25% and above 1000 nM.
The matching figures for `O=C1CCC(N2Cc3cc(CNC(=O)c4ccc(Cl)c(O)c4)c(F)cc3C2=O)C(=O)N1` (centres unmarked) [FDAB-55]: above 80% and 1 to 10 nM.
`CCOC(=O)CN1C(=O)CCC(N2Cc3c(ccc(CNC(=O)c4ccc(Cl)cc4)c3F)C2=O)C1=O` (centres unmarked) [FDAB-126]: the inhibition at 1 µM on GSPT1 protein (NB-4 cells, compound 1 μM, 6 h) is below 25%. For the same compound, the IC50 with MV-4-11 cells (MV4-11, MV-4-11 cells, 72 h) was above 1000 nM.
